Laboratory results from patent US20020182619A1, “Compositions, kits, and methods for identification, assessment, prevention, and therapy of ovarian cancer” (Millennium Pharmaceuticals, Inc., priority 2000, published 2002).

Tested on: ovarian cell line (OVCAR3)
Assay: Transcript profiling on nylon arrays of OVCAR3 untreated or treated with LPA, LYS294002, or both
Format: cell-based
Description: Nylon arrays were prepared by spotting purified PCR product onto a nylon membrane using a robotic gridding system linked to a sample database. Several thousand clones were spotted on each nylon filter.
RNA or DNA from cell lines were used for hybridization against the nylon arrays. The RNA or DNA is labeled utilizing an in vitro reverse transcription reaction that contains a radiolabeled nucleotide that is incorporated during the reaction. Hybridization experiments were carried out by combining labeled RNA or DNA samples with nylon filters in a hybridization chamber. Duplicate, independent hybridization experiments were performed to generate transcriptional profiling data. See, Nature Genetics, 21 (1999).
The level of expression of ˜25,000 potential markers were measured in 4 samples, an untreated ovarian cell line (OVCAR3), OVCAR3 treated with LPA, OVCAR3 treated with LYS294002, and OVCAR3 treated with LPA and LYS294002. LYS294002 is a specific inhibitor of the P13Kinase pathway.
Table 1 represents the markers that are expressed at least 2.5 fold greater in the OVCAR3 cell line treated with LPA as compared to the untreated cell line (column G). Table 1 also lists the expression value of these potential marker in the 4 samples, untreated OVCAR3, OVCAR3 treated with LPA, OVCAR3 treated with LYS294002, and OVCAR3 treated with LYS294002 and LPA (columns C-F). […]

lysophosphatidic acid [LPA]
UPinLPA vs OVCAR3: marker expression in the OVCAR3 cell line treated with LPA as compared to the untreated cell line (markers of Table 1, quotient of Ave-LPA divided by Ave-OVCAR3): at least 2.5 fold
UPinOVCAR3 vs LPA: marker expression in the untreated OVCAR3 cell line as compared to the cell line treated with LPA (markers of Table 2, quotient of Ave-OVCAR3 divided by Ave-LPA): at least 4 fold
